The source made the active and inactive calls.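 Rule for the calls: active = 40% activation versus positive control reached by fitted dose-response curve at or below highest valid tested dose; inconclusive = poor fit quality, or flat fit with activation between 30% and 70%; inactive = the rest.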

A short description of the first test: inactive X chromosome reactivation in XiGFP fibroblasts, dose response, imaging, 68-5-11 mouse fibroblasts, GFP, cherry-pick (AID 743394).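 Note: sensitizer 5-aza-dC present in the wells at 0.5 mM final.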 As to conditions: 68-5-11 mouse fibroblast XiGFP reporter, % GFP-positive imaging, 3 d; at 19.5 µM (top of the series).
For `OCC[n+]1c2ccccc2nc2ccc(N3CCOCC3)cc21`, the activation is 0.02% (inactive). Turning to `Cc1ccc2[nH]c(=S)n(-c3cccnc3)c(=O)c2c1`, the activation is -0.035% (inactive).

Turning to `C[n+]1c(-c2ccccc2)c2cc(N)ccc2c2ccc(N)cc21`, the activation is 1.19% (inactive). With `Cc1cc(=O)oc2cc3c(cc12)CCCN3`, the activation is 0.76% (inactive).

The same test, now with this note: 68-5-11 mouse fibroblast XiGFP reporter, % GFP-positive imaging, 3 d; at 19.5 µM (top of the series); cells co-treated with 5-aza-dC sensitizer; scaled: neutral wells 0, ellipticine wells 100.
On to `Cc1ccc(NC(=O)c2ccc(=O)[nH]c2)cc1S(=O)(=O)N1CCCCCC1`, for which the activation was 0.105% (inactive).

`CC(O)(c1ccccc1)c1nc(-c2ccncc2)cs1` (configuration not stated): the activation was 0.105% (inactive).

With `O=C(CCl)N=c1sccn1Cc1ccc(Cl)cc1Cl`, the activation was 0.591% (inactive). Turning to `COc1ccccc1C#Cc1ccc2c(c1)O[C@H](CN(C)Cc1cncnc1)[C@@H](C)CN([C@H](C)CO)S2(=O)=O`, the activation is 0.045% (inactive).

With `C[C@@H]1CN([C@@H](C)CO)C(=O)c2cc(NS(=O)(=O)c3ccccc3)ccc2O[C@@H](C)CCCCO[C@@H]1CN(C)Cc1ccc2c(c1)OCO2`, the activation is 0% (inactive). Turning to `COc1ccc2c3c([nH]c2c1)[C@H](CO)N(C(=O)Nc1ccc(F)cc1)CC31CN(CC2CC2)C1`, the activation was -0.035% (inactive). The same measure, in the same setting: the result for `O=c1c2cc(-c3ccccc3)sc2nc2n1N=C(c1ccccc1)CS2` reads 1.54% (inactive). Regarding `Cc1ccccc1NC(=O)CN1C(=O)S/C(=C\c2ccc(-c3cc(C(=O)O)ccc3C)o2)C1=O`, the activation was 0.024% (inactive). For the compound `Cc1cccc(-c2ccc([C@H]3[C@H](CO)N4CCCCN(C(=O)NC(C)C)C[C@@H]34)cc2)c1`, the activation was 0.105% (inactive).

As for `COc1ccc(S(=O)(=O)Nc2ccc3c(c2)C(=O)N([C@@H](C)CO)C[C@H](C)[C@H](CN(C)C(=O)CCCN(C)C)OCCCC[C@H](C)O3)cc1`, the activation is 0.053% (inactive). Regarding `COc1ccc(NC(=O)C(=O)NCCC2CCCCN2S(=O)(=O)c2cccs2)cc1` (configuration not stated), the activation was 6.11% (inactive). `COc1ccc2c(c1)c(/C=N/Nc1nc3ccccc3[nH]1)c(C)n2C`: the activation is 5.21% (inactive). `COc1ccc(/C=C\c2onc(C)c2S(=O)(=O)N2CCC(C(=O)NCc3ccco3)CC2)cc1`: the activation is 0.355% (inactive). In the case of `COc1ccc2c3c(n(C)c2c1)[C@@H](CO)N(C)CC31CN(C(=O)NC(C)C)C1`, the activation is -0.012% (inactive). In the case of `COc1ccc2c3c(n(C)c2c1)[C@@H](CO)N(Cc1ccccc1OC)CC31CCN(C)CC1`, the activation was 0.213% (inactive).

For `COc1ccc2c3c([nH]c2c1)[C@H](CO)N(C(=O)C1CCCC1)CC31CN(Cc2nccs2)C1`, the activation was -0.007% (inactive).

As to `Cc1nn(-c2ccccc2)c(N)c1N=O`, the activation is -0.053% (inactive).

For the compound `CC(=O)c1cccc(-c2ccc3c(c2)C(C)(Cc2ccc(S(C)(=O)=O)cc2)C(=O)N3)c1` (configuration not stated), the activation is -0.032% (inactive). Regarding `Cc1ccc(S(=O)(=O)N(C)C[C@H]2Oc3ccc(NC(=O)Nc4ccccc4)cc3CC(=O)N([C@H](C)CO)C[C@@H]2C)cc1`, the activation is -0.035% (inactive). Regarding `Cc1cc(C(=O)NCc2cc(F)cc3c2OCOC3)nn1C`, the activation is -0.037% (inactive).

Regarding `Cc1ccccc1NC(=O)c1cn2c(nc3ccccc32)c(C#N)c1C`, the activation was 3.72% (inactive). Turning to `CC(=O)c1ccc2c(c1)OCCOCCOCCOCCOCCO2`, the activation was -0.021% (inactive). Regarding `Cc1ncsc1C(=O)Nc1cccc(C(F)(F)F)c1`, the activation was -0.075% (inactive). Take `Cc1ccc(Cn2ccsc2=NC(=O)CCl)cc1`: the activation was -0.035% (inactive).

On to `O=C1C=CC(=O)C(CNc2ccc(C(=O)OCc3ccccc3)cc2)=C1`, for which the activation was -0.05% (inactive). Same read-out and setting: in the case of `COc1cc(/C=C(\C#N)c2nc3ccccc3o2)ccc1O` it was 1.85% (inactive); in that of `COc1ccc(N(C)S(=O)(=O)c2cccc(C(=O)NCC(c3cccs3)N(C)C)c2)cc1` (configuration not stated), 0.036% (inactive); in that of `CC1=Nc2ccccc2/C1=C\c1sc(Nc2ccc(C)cc2)nc1O`, 0.535% (inactive).

For `Cc1ccc(S(=O)(=O)c2ccc([N+](=O)[O-])cn2)cc1`, the activation was -0.05% (inactive). In the case of `CCCCC(=O)N(C)c1c(CC)nc2c(OCC(=O)c3ccc(F)cc3)cccn12`, the activation is -0.039% (inactive). The same measure, in the same setting: the result for `COc1ccc(C(=O)Nc2ccc3oc(-c4cccc(F)c4)nc3c2)cc1OC` reads 0.002% (inactive); that for `CCOC(=O)Nc1cc2c(c(N)n1)N=C(c1ccccc1)CN2`, -0.053% (inactive). Consider `C[C@@H]1C[C@H]2[C@@H]3CCC4=CC(=O)C=C[C@]4(C)[C@@]3(F)[C@@H](O)C[C@]2(C)[C@H]1C(=O)CO`, for which the activation was 0.179% (inactive). As for `CC=Cc1ccc2n(c1=O)C[C@@H]1[C@@H](CO)[C@H](C(=O)NCCCN(C)C)[C@H]2N1C(=O)c1ccccc1F` (mixture of isomers), the activation is -0.01% (inactive). Regarding `Brc1cccc(CNCC2CCCO2)c1` (configuration not stated), the activation was 0.116% (inactive).

`O=C(N/N=C/c1ccc2cccnc2c1)c1nc2ccccc2c(=O)[nH]1`: the activation was 0.014% (inactive). Consider `O=C1Nc2ccccc2/C1=C/c1ccccc1Cl`, for which the activation is -0.034% (inactive). For the compound `CC(C)(C)NC(=O)C(c1c[nH]c2ccccc12)N(C(=O)Cn1nnc(-c2ccc(Cl)cc2)n1)c1ccccc1F` (configuration not stated), the activation was 0.104% (inactive). Consider `O=C(CCn1nc(-c2ccc(Cl)cc2)c2ccccc2c1=O)NN1CCOCC1`, for which the activation is -0.017% (inactive). With `C[C@H]1CN([C@@H](C)CO)C(=O)c2cc(NC(=O)CCCCCC(=O)Nc3ccccc3N)ccc2O[C@H]1CN(C)C(=O)Nc1ccccc1`, the activation is 0.04% (inactive).

`O=C1c2ccc3c4c(ccc(c24)C(=O)N1c1cccc(O)c1)C(=O)N(c1cccc(O)c1)C3=O`: the activation was -0.037% (inactive). On to `COc1cc(/C=C2\SC(=S)N(N3CCOCC3)C2=O)cc(OC)c1OC`, for which the activation was 0.067% (inactive). With `CN(C)CCCNC(=O)/C(=C\c1ccc(-c2ccc(Br)cc2)o1)NC(=O)c1ccccc1`, the activation was -0.053% (inactive). On the same count and under the same terms, in the case of `O=C(Nc1cccc(C(=O)O)c1)/C(=C\c1ccccc1)NC(=O)c1ccc(Br)o1` it was 0.02% (inactive); in that of `C=CCN(CC(O)c1cccc([N+](=O)[O-])c1)C(C)CCc1ccccc1` (configuration not stated), -0.039% (inactive). As for `COc1cccc(-c2ccc(C3[C@@H]4CN(C(=O)C5CCCCC5)C[C@H]3N4)cc2)c1` (some centres not stated), the activation was 2.76% (inactive).

As to `C[C@@H]1CCCCO[C@H](CN(C)C(=O)Nc2ccc(C(F)(F)F)cc2)[C@H](C)CN([C@H](C)CO)C(=O)c2cc(NC(=O)CCC(F)(F)F)ccc2O1`, the activation is 0.24% (inactive).

Regarding `Cc1c(/C=N\NC(=O)c2cc3ccccc3o2)c2ccccc2n1C`, the activation is -0.044% (inactive). Consider `CC(C)OC(=O)CC(=O)CSc1nc(-c2ccc(F)cc2)cc(-c2ccccc2)c1C#N`, for which the activation was 0.769% (inactive). On to `CC(=O)OCCNc1cc(Sc2nc3ccccc3[nH]2)c2nonc2c1[N+](=O)[O-]`, for which the activation was -0.034% (inactive). As for `Cc1ccc(-c2nc(CS(=O)CC(=O)NCCCN3CC(C)CC(C)C3)c(C)o2)cc1` (configuration not stated), the activation was 0.4% (inactive).

In the case of `COCCNC(=S)N(Cc1cccnc1)Cc1ccc(OC)c(OC)c1`, the activation was 0.071% (inactive). `O=C(CCC(=O)Nc1cccnc1)Nc1cccnc1`: the activation is 0.049% (inactive). On the same count and under the same terms, in the case of `CC(C)n1c(NCc2cc(Cl)ccc2O)nc2ccccc21` it was -0.029% (inactive).

Take `CCNC(=O)C[C@@H]1CC[C@H]2[C@@H](COC[C@@H](O)CN2C(=O)C2CCCC2)O1`: the activation is -0.016% (inactive).

Consider `Cc1onc(-c2c(Cl)cccc2Cl)c1-c1nc2cc(Cl)ccc2c(=O)o1`, for which the activation was -0.032% (inactive).

With `CCCCn1nnnc1C(c1ccccc1)N1CCN(c2ccc(C)cc2)CC1` (configuration not stated), the activation is 0.03% (inactive). With `Cc1ccsc1C1Nc2ccccc2-c2nc3ccccc3n21` (configuration not stated), the activation is -0.047% (inactive). On to `CCOC(=O)Nc1ccc2nc(-c3cscn3)[nH]c2c1`, for which the activation is 0.097% (inactive). For the compound `COc1ccc(CCn2c(C)cc(C(=O)CN3C(=O)C(=O)N(Cc4ccco4)C3=O)c2C)cc1`, the activation is 0.899% (inactive). `CSc1ccc(CN2C(=O)NC3(CCCCCCC3)C2=O)cc1`: the activation was 0.616% (inactive). For `COc1ccccc1-c1ccc(/C=N/O)o1`, the activation was -0.003% (inactive). In the case of `CCCNC(=O)N1CC2(CN(S(C)(=O)=O)C2)c2c(n(C)c3cc(OC)ccc23)[C@H]1CO`, the activation is 0.016% (inactive). On the same count and under the same terms, the result for `C/C(CC(=O)Nc1ccc(C)c(Cl)c1)=N\NC(=O)Cc1ccccc1` reads -0.06% (inactive); that for `COc1ccc(-c2nn(-c3ccccc3)cc2C(=O)NC(=S)Nc2cc(Cl)ccc2Cl)cc1`, 3.67% (inactive). Consider `COC(=O)CCN1CCC(c2cc(-c3cccc(C(F)(F)F)c3)n[nH]2)CC1`, for which the activation was 0.056% (inactive). For the compound `Cc1ccc(NC(=O)c2ncn(CCCNCCCN(C)C)n2)cc1C`, the activation was 0.041% (inactive). As to `CCN(CC)S(=O)(=O)c1ccc(Cl)c(NC(=O)COC(=O)c2c(C)noc2C)c1`, the activation was 0.03% (inactive). Take `c1ccc(CCNc2nc(-c3ccccn3)nc3ccccc23)cc1`: the activation is -0.035% (inactive). For `COc1ccc(N2C(=O)C3CCCN3C2c2cccc(OC)c2)cc1` (configuration not stated), the activation was 0.02% (inactive).

`CC(=NNC(=S)Nc1cccc(Cl)c1)c1ccccn1`: the activation was -0.035% (inactive). Consider `CCc1ccc(CN(C)C(=O)c2cc(S(=O)(=O)N3CCOCC3)ccc2N2CCCC2)cc1`, for which the activation was -0.007% (inactive). On to `CCOC(=O)c1ccc(NC(=O)C2(N3C(=O)c4ccccc4C3=O)CCCC2)cc1`, for which the activation is 0.082% (inactive).

(Values after PubChem BioAssay AID743394 (Broad Institute, 2014).)
